# Experimental data from patent publication US20030208035A1, “Antifungal and/or antibacterial peptides, preparation methods, compositions containing same and methods of treating mammals and/or plants” (priority 2000, published 2003).
# Where two headings read alike, the source gives them in different places. Bridges are numbered along the chain shown (N, C = ends). Where no end group is shown, it is not given here.
# Key:
# [1] = tested on: A. fumigatus; assay type: cell-based
# Experimental: (§1) The antifungal activity was detected by a growth inhibition test in a liquid medium.
# (§2) The filamentous fungi (A. fumigatus, A. flavus and A. terreus, donated by Dr. H. Koenig, Hôpital Civil, Strasbourg; and S. prolificans and F. solani donated by Drs. J. Meis and J. Mouton, University hospital, Microbioolgy Department, Nijmegen, Netherlands) were seeded on Malt-Agar slant gelose (Biomerieux) and incubated 7 days at 37° C.
# (§3) The spores were then collected with 10 ml YPG medium containing 0.05% Tween 20 and filtered through a gauze. The spores were centrifuged 10 min at 1700 rpm, the residue was collected in YPG (1 g Yeast extract, 1 g Peptone, 3 g Glucose per 1 l).
# (§4) The suspension was counted with a Coverslide and adjusted to 10^4 spores/ml.
# (§5) 100 μl of peptide dilutions (concentration of 50 with 0.097 μg/ml peptide) were deposited in microtitration plates. 100 μl with 10^4 spores/ml of filamentous fungi, i.e. 1000 spores, were then added.
# (§6) The test plates were incubated 48 h at 37° C.
# (§7) Determination of minimum inhibiting concentrations (MIC) was made by observing well cover rate. The MIC score was set at 50% well covering.
# [2] = tested on: fluconazole-resistant C. albicans; test: microbe, parasite or virus in culture; assay type: cell-based, Candida albicans
# Experimental: (§8) Candida yeasts (C. albicans, C. glabrata, C. dubliensis, C. tropicalis, C. kefyr, C. krusei and C. parapsilosis—donated by Dr. H. Koenig, Hôpital Civil, Strasbourg), fluconazole-resistant C. albicans (n^o245962, n^o2332, n^o246335 and n^o3552, donated by Drs. J.Meis and J. Mouton, University Hospital, Microbiology Department, Nijmegen, Netherlands), and Cryptoccocus neoformans (donated by Dr. H. Koenig, Hôpital Civil, Strasbourg) were seeded on Sabouraud-Cloramphenicol Agar slant gelose (Biomerieux) and left to incubate for 24 h at 30° C. (Candida sp.) and for 72 h at 37° C. (Cryptoccocus neoformans).
# (§9) Some yeast colonies were placed in suspension in liquid Sabouraud medium (Biomerieux) to obtain a final concentration of 0.1 OD at 600 nm corresponding to 2.5.10^6 yeasts/ml.
# (§10) The yeast suspension was adjusted to 5.10^3 yeast/ml in Sabouraud medium.
# (§11) 100 μl of peptide dilutions (concentration of 50 with 0.097 μg/ml peptide) were deposited in microtitration plates. After adding […] of yeast suspension with 5.10^3 yeast/ml i.e. 500 yeasts, the test plates were incubated 24 h at 30° C. (Candida) under slow shaking or 72 h at 37° C. (Cryptoccocus).
# (§12) Determination of minimal inhibiting concentrations (MIC) was made by measuring absorbency at 600 nm using a spectrophotometer-microtitration plate reader. The MIC score was set at a growth inhibition rate of 50%.
# [3] = tested on: F. solani; test: Test to detect activity against filamentous fungi (MIC); assay type: cell-based; conditions: F. solani FFUS 8591
# Experimental: as §1, §2, §3, §4, §5, §6, §7
# [4] = tested on: S. prolificans; test: as above; assay type: cell-based
# Experimental: as §1, §2, §3, §4, §5, §6, §7
# [5] = tested on: Aspergillus fumigatus; test: anti-Aspergillus fumigatus growth inhibition test in liquid medium (96-well microplates); assay type: cell-based
# Experimental: (§13) The anti-Candida albicans and anti-Aspergillus fumigatus activities of the different analogues were assessed using a growth inhibition test in liquid medium made in 96-well microplates. The activity of the purified peptides was tested for different dilutions of each peptide and was compared with those of heliomycin and Ard1 quantified under the same conditions.
# The spores of Aspergillus fumigatus were derived from a stock frozen at −80° C., containing 10^7 spores/ml in a 25% glycerol solution. After slow thawing at room temperature, the spores were placed in suspension in PDB culture medium (12 g Potato Dextrose Broth medium, per […] water). 10 μl of each sample were deposited in the wells of microtitration plates in the presence of 90 μl PDB culture medium supplemented with tetracycline (100 μg/ml) and cefotaxime (1 μg/ml) containing the spores (at a final concentration of 1000 spores/well). Control cultures were systematically made in which 10 μl of sample were replaced by 10 μl of sterile water. Media sterility was controlled by incubating 10 μl sterile water in the presence of 90 μl of medium. The samples were incubated at 37° C. for 24 h to 48 h in a humid atmosphere, and the antifungal activity was quantified by a score of 0 to 9 taking germination account; the size and morphology of the hyphs were determined under the binocular microscope. […].
# [6] = tested on: Candida albicans (IHEM 8060 strain); test: Candida albicans infected model, lethal in mice (disseminated candidiasis); assay type: in vivo
# Experimental: Heliomycin and its analogues were tested for in vivo antifungal activity in a model infected with Candida albicans, lethal in mice. The pathogenic agent Candida albicans (IHEM 8060 strain) was inoculated by intravenous route (i.v.) at a dose of 2.5×10^6 CFU/mouse. the peptides were administered by i.v. route in 4 injections 6 h, 24 h, 48 h and 72 h after infection. Assessment criteria for activity were evaluation of survival and morbidity at 7 days. The morbidity scores, which take into account general state of health (condition of fur, mobility, hydration) were determined for each mouse with values ranging from 0 to 5 and defined below: 0=dead, 1=moribund, 2=very ill, 3=ill, 4=slightly ill, 5=healthy. The sum of the individual scores was calculated for each group, a score of 50 for a group of 10 mice meaning that all the mice were healthy.
# Following a standard protocol, groups of 10 Swiss OF1 male mice weighing 12 g were infected via i.v. route with a dose of 2.5×10^6 CFU/mouse. Heliomycin and Ard1 were administered by i.v. route in 4 injections, 6 h, 24 h, 48 h and 72 h after infection. For each peptide, 2 doses were tested: 10 mg/kg and 30 mg/kg. A placebo group was injected with peptide solvent, 0.9% sodium chloride.
# In this experiment, inoculation of the mice with 2.5.10^6 CFU/mouse was 50% lethal at day 5 in the group which received placebo treatment. The first deaths occurred on post-infection day 2.5 and median mortality occurred on post-infection day 5. On day 7, 5 mice were alive and the morbidity score 15/50.
# In this experiment, inoculation of Swiss OF1 mice weighing 15 g with 3.10^6 CFU of Candida albicans induces 50% mortality on day 4 after infection in the group treated with the placebo. The first deaths occur 2.5 days after infection, and 100% of the mice were dead on day 5.5.
# In this experiment, inoculation of the mice with 2.5.10^6 CFU/mouse was 50% lethal at day 5 and 100% at day 8 for mice in the placebo group. The first death occurred 3 days after infection. The morbidity score fell rapidly below 30/50 (25/50 at day 2.5).
# The pEM35 peptide was administered at doses of 10 and 30 mg/kg/injection with 3 daily doses for 4 days (1 h, 5 h and 10 h post-infection on day 0; at 8 h, 14 h and 20 h on days 1, 2 and 3), i.e., daily doses totalling 30 and 90 mg/kg.
# [7] = tested on: C. glabrata; assay type: cell-based
# Experimental: as §8, §9, §10, §11, §12
# [8] = tested on: C. kefyr; assay type: cell-based
# Experimental: as §8, §9, §10, §11, §12
# [9] = tested on: C. krusei; assay type: cell-based
# Experimental: as §8, §9, §10, §11, §12
# [10] = tested on: Alternaria brassicola; assay type: cell-based; conditions: 48 h
# Experimental: (§14) 100 μl of peptide dilutions (concentration 50 with 0.097 mg/ml peptide) were deposited in microtitration plates.
# (§15) After adding 100 μl of frozen spores with 10^4 spores/ml of A. brassicola and N. crassa (donated by Dr. Bullet, IBMC, Strasbourg) the test plates were incubated 48 h at 30° C.
# (§16) Determination of minimal inhibiting concentrations (MIC) was made by observing well cover rate. The MIC was set at 50% well covering.
# [11] = tested on: Neurospora crassa; assay type: cell-based; conditions: 48 h
# Experimental: as §14, §15, §16
# [12] = tested on: Candida albicans; test: anti-Candida albicans growth inhibition test in liquid medium (96-well microplates); assay type: cell-based; conditions: fold relative to Ard1
# Experimental: as §13
# The activity test was made directly on yeasts derived from a stock frozen at −80° C., in Sabouraud medium containing 15% glycerol. The density of the yeasts in the stock was adjusted to an optical density of 0.4 OD at 600 nm. After slow thawing at room temperature, the yeast suspension was reduced by dilution to an optic density of 1 mOD at 600 nm in Sabouraud medium, and 90 μl of this dilution were deposited in the wells of microtitration plates in the presence of 10 μl of sample to be tested. Control samples were systematically made in which 10 μl of sample were replaced by 10 μl of sterile water. Media sterility was controlled by incubating 10 μl sterile water in the presence of 90 μl of medium. The samples were incubated at 30° C. for 40 h under slight stirring and the antifungal activity was quantified by measuring optic density at 600 nm.
# [13] = tested on: C. albicans; assay type: cell-based, Candida albicans; conditions: 24 h
# Experimental: as §8, §9, §10, §11, §12
# [14] = tested on: C. parapsilosis; assay type: cell-based
# Experimental: as §8, §9, §10, §11, §12
# [15] = tested on: C. tropicalis; assay type: cell-based
# Experimental: as §8, §9, §10, §11, §12
# [16] = fluconazole-resistant C. albicans n° 2332
# [17] = fluconazole-resistant C. albicans n° 245962
# [18] = fluconazole-resistant C. albicans n° 246335
# [19] = FIGS. 2-3, 10 mg/kg i.v., 4 injections
molecule,measurement,setting,value
"C[C@@H]1[C@H](O)[C@@H](C)/C=C/C=C/C=C/C=C/C=C/C=C/C=C/[C@H](O[C@@H]2O[C@H](C)[C@@H](O)[C@H](N)[C@@H]2O)C[C@@H]2O[C@](O)(C[C@@H](O)C[C@@H](O)[C@H](O)CC[C@@H](O)C[C@@H](O)CC(=O)O[C@H]1C)C[C@H](O)[C@H]2C(=O)O [ampho B, Amphotericin B]",MIC,[1]; A. fumigatus FASF 5161,0.5 µg/mL
same,MIC,[2]; [16],0.25 µg/mL
same,MIC,[2]; [17],0.125 µg/mL
same,MIC,[2]; [18],0.0625 µg/mL
same,MIC,[3],> 16 µg/mL
same,MIC,[4]; S. prolificans FSSP 7902,> 16 µg/mL
same,MIC,[4]; S. prolificans FSSP 7908,> 16 µg/mL
OC(Cn1cncn1)(Cn1cncn1)c1ccc(F)cc1F [fluconazole],MIC,"[2]; Candida albicans, fluconazole-resistant C. albicans n° 3552, read-out: MIC",> 64 µg/mL
same,MIC,[2]; [16],> at 64 μg/ml
same,MIC,[2]; [17],> at 64 μg/ml
same,MIC,[2]; [18],> at 64 μg/ml
"DKLIGSCVWGAVNYTSNCNAECKRRGYKGGHCGSFANVNCWCET (disulfide 7-32, 18-40, 22-42 (inferred)) [Ard1]",Activity A.f. (relative activity in relation to heliomycin),[5]; fold relative to heliomycin,2
same,effect on survival and general condition of the mice,[6]; [19],did not make it possible to improve survival
same,time after infection at which 50% of mice were dead,[6]; [19],2 days
same,mice alive on day 7 (out of 10),"[6]; FIGS. 2-3, 30 mg/kg i.v., 4 injections",5 mice
same,morbidity score at day 7,"[6]; FIGS. 2-3, 30 mg/kg i.v., 4 injections, 50 = all 10 mice healthy",16/50
same,delay of onset of the first death,"[6]; FIGS. 2-3, 30 mg/kg i.v., 4 injections, vs placebo",24 h
same,mice alive on day 7 (out of 10),"[6]; FIGS. 4-5, 10 mg/kg, placebo 5 alive",8 mice
same,delay of onset of the first death,"[6]; FIGS. 4-5, 2.5.10^6 CFU/mouse, 10 mg/kg, placebo first deaths day 2.5",36 h
same,effect on mouse survival relative to placebo treatment,"[6]; FIGS. 6-7, 3.10^6 CFU, 5 mg/kg, three i.v. injections, 10 mice of 15 g",does not significantly increase mouse survival
same,effectiveness in the candidiasis infected model,"[6]; FIGS. 6-7, dose 5 mg/kg",not effective
same,MIC,[7],>25 µg/mL
same,MIC,[8],>25 µg/mL
same,MIC,[9],3.125 µg/mL
same,MIC,[1]; 48 h,12.5 µg/mL
same,MIC,[10],>25 µg/mL
same,MIC,[11],0.097 µg/mL
"DKLIGSCVWGAVNYTSNCNAECKRRGYKGGHCGSFLNVNCWCER (disulfide 7-32, 18-40, 22-42 (inferred)) [pEM48]",Activity C.a. (relative activity in relation to Ard1),[12],6-12
same,Activity A.f. (relative activity in relation to Ard1),[5]; fold relative to Ard1,1-2
same,MIC,[13],1.56 µg/mL
same,MIC,[7],>25 µg/mL
same,MIC,[8],25 µg/mL
same,MIC,[9],1.56 µg/mL
same,MIC,[14],0.78 µg/mL
same,MIC,[15],3.125 µg/mL
same,MIC,[10],12.5 µg/mL
same,MIC,[11],0.39 µg/mL
